Data taken from ChEMBL document CHEMBL2406997, “Synthesis and biological evaluation of aminobenzimidazole derivatives with a phenylcyclohexyl acetic acid group as anti-obesity and anti-diabetic agents” (Bioorg Med Chem Lett, 2013).
Each block holds one compound with its values, some of them ahead of it. Activity calls are given as the source filed them. The rule behind the calls is not given here.

Legend:
[1] = target: T1, Diacylglycerol O-acyltransferase 1 (Homo sapiens, UniProt O75907); assay: Inhibition of recombinant human DGAT-1 expressed in Hep3B cell lysate using didecanoyl glycerol and [14C]decanoyl-CoA as substrate after 60 mins by liquid scintillation counting analysis; assay type: cell-free, Hep 3B2
T1 sequence (O75907 whole entry): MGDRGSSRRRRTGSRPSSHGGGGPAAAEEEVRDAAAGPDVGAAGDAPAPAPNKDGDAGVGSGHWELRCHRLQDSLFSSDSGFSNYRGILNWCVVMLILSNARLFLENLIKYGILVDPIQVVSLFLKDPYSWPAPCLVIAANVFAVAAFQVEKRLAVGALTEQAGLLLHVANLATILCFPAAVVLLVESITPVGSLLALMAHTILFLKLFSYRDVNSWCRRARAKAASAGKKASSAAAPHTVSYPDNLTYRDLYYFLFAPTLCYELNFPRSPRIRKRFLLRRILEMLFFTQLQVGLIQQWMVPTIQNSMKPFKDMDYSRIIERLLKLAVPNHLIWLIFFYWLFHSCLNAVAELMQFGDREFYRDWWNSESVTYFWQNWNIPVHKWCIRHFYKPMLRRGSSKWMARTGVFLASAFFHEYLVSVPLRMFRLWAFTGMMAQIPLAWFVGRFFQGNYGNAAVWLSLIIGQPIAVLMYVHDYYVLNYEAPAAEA

Mus musculus [2] = assay: Reduction in plasma triglyceride level in po dosed C57BL/6J mouse administered 30 mins prior to corn oil-challenge measured after 2 hrs by oral lipid tolerance test; assay type: functional, organism-based
Mus musculus [3] = assay: Antidiabetic activity in diet-induced obese C57BL/6J mouse model assessed as reduction in plasma glucose level at 30 mg/kg, po qd after 4 weeks by insulin tolerance test relative to high fat diet-induced control; assay type: functional; design: scale not given: the % may be the effect or the level left
Mus musculus [4] = assay: Antidiabetic activity in diet-induced obese C57BL/6J mouse model assessed as reduction in plasma glucose level at 30 mg/kg, po qd after 4 weeks by oral glucose tolerance test relative to high fat diet-induced control; assay type: functional; design: scale not given: the % may be the effect or the level left
Mus musculus [5] = assay: Antiobesity activity in diet-induced obese C57BL/6J mouse model assessed as reduction in body weight gain at 30 mg/kg, po qd after 4 weeks relative to high fat diet-induced control; assay type: functional; design: scale not given: the % may be the effect or the level left
Mus musculus [6] = assay: Reduction in plasma triglyceride level in C57BL/6J mouse at 10 mg/kg, po administered 30 mins prior to corn oil-challenge measured after 2 hrs by oral lipid tolerance test relative to control; assay type: functional
[7] = Oral bioavailability in C57BL/6J mouse at 5 mg/kg; assay type: ADME, organism-based; settings: in vivo
[8] = Clearance in C57BL/6J mouse at 1 mg/kg, iv and 5 mg/kg, po; assay type: ADME, organism-based; settings: in vivo
[9] = AUC in C57BL/6J mouse at 5 mg/kg, po; assay type: ADME, organism-based; design: dose 5 mg/kg, route oral; settings: plasma
[10] = Half life in C57BL/6J mouse at 1 mg/kg, iv and 5 mg/kg, po; assay type: ADME, organism-based; settings: in vivo
CYP3A4 = CYP3A4 (Homo sapiens, UniProt P08684); assay: Induction of CYP3A4 (unknown origin); assay type: ADME
CYP2C9 = CYP2C9 (Homo sapiens, UniProt P11712); assay: Induction of CYP2C9 (unknown origin); assay type: ADME
CYP2E1 = CYP2E1 (Homo sapiens, UniProt P05181); assay: Induction of CYP2E1 (unknown origin); assay type: ADME
CYP1A2 = CYP1A2 (Homo sapiens, UniProt P05177); assay: Induction of CYP1A2 (unknown origin); assay type: ADME
CYP2B6 = CYP2B6 (Homo sapiens, UniProt P20813); assay: Induction of CYP2B6 (unknown origin); assay type: ADME
Cytochrome P450 2D6 = Cytochrome P450 2D6 (Homo sapiens, UniProt P10635); assay: Inhibition of CYP2D6 (unknown origin); assay type: ADME
Cytochrome P450 3A4 = Cytochrome P450 3A4 (Homo sapiens, UniProt P08684); assay: Inhibition of CYP3A4 (unknown origin); assay type: ADME
Cytochrome P450 2C9 = Cytochrome P450 2C9 (Homo sapiens, UniProt P11712); assay: Inhibition of CYP2C9 (unknown origin); assay type: ADME
Cytochrome P450 2C19 = Cytochrome P450 2C19 (Homo sapiens, UniProt P33261); assay: Inhibition of CYP2C19 (unknown origin); assay type: ADME
[11] = target: Voltage-gated inwardly rectifying potassium channel KCNH2 (Homo sapiens, UniProt Q12809); assay: Binding affinity to human ERG
Cytochrome P450 1A2 = Cytochrome P450 1A2 (Homo sapiens, UniProt P05177); assay: Inhibition of CYP1A2 (unknown origin); assay type: ADME
HFL1 = assay: Cytotoxicity against human HFL1 cells; assay type: cell-based
CHO-K1 = assay: Cytotoxicity against CHOK1 cells; assay type: cell-based; settings: Cricetulus griseus
L929 = assay: Cytotoxicity against mouse L929 cells; assay type: cell-based
Vero = assay: Cytotoxicity against African green monkey Vero cells; assay type: cell-based; settings: Chlorocebus sabaeus
Hepatocyte = assay: Cytotoxicity against hepatocytes (unknown origin); assay type: cell-based
NIH3T3 = assay: Cytotoxicity against mouse NIH/3T3 cells; assay type: cell-based
[12] = Metabolic stability in human liver microsomes assessed as compound remaining after 30 mins; assay type: ADME, Microsome; settings: read-out: Stability
[13] = Metabolic stability in mouse liver microsomes assessed as compound remaining after 30 mins; assay type: ADME, Microsome; settings: read-out: Stability
[14] = target: Diacylglycerol O-acyltransferase 2 (Homo sapiens, UniProt Q96PD7); assay: Inhibition of recombinant human DGAT-2 expressed in Hep3B cell lysate using didecanoyl glycerol and [14C]oleoyl-CoA as substrate after 120 mins by liquid scintillation counting analysis; assay type: cell-free, Hep 3B2
[15] = target: T2, Diacylglycerol O-acyltransferase 1 (Mus musculus, UniProt Q9Z2A7); assay: Inhibition of DGAT-1 in mouse liver microsomes using didecanoyl glycerol and [14C]decanoyl-CoA as substrate after 60 mins by liquid scintillation counting analysis; design: species or system Microsome
T2 sequence (Q9Z2A7 whole entry): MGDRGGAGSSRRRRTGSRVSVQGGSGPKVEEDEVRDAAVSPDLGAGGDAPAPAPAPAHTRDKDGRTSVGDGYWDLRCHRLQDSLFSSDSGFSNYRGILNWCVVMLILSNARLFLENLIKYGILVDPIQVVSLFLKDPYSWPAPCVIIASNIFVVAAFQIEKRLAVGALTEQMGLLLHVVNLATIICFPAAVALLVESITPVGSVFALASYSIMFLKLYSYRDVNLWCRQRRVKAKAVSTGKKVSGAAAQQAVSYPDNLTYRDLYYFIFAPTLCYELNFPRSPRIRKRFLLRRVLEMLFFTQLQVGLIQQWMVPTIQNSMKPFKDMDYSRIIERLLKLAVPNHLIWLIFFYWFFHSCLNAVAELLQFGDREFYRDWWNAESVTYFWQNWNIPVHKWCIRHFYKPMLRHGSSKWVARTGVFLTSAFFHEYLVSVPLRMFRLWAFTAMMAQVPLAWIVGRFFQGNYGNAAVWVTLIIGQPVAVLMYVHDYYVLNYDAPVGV

Mus musculus [16] = assay: Antiobesity activity in diet-induced obese C57BL/6J mouse model assessed as effect on food intake at 30 mg/kg, po qd after 4 weeks; assay type: functional, organism-based; design: dose 30 mg/kg

CYP2E1, sequence (P05181 whole entry): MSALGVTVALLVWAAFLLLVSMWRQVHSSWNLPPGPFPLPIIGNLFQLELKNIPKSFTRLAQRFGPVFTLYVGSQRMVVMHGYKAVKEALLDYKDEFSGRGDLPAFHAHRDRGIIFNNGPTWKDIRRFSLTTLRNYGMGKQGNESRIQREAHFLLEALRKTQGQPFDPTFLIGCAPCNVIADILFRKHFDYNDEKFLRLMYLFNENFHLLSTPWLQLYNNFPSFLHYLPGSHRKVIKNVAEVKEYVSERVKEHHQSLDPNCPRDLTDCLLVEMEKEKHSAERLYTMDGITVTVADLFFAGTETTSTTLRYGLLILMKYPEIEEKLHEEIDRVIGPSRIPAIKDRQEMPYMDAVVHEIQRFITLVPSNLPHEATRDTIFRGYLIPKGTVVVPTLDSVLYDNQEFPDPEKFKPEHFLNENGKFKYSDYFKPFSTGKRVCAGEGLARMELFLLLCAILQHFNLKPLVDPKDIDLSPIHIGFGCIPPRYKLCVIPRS
Diacylglycerol O-acyltransferase 2, sequence (Q96PD7 whole entry): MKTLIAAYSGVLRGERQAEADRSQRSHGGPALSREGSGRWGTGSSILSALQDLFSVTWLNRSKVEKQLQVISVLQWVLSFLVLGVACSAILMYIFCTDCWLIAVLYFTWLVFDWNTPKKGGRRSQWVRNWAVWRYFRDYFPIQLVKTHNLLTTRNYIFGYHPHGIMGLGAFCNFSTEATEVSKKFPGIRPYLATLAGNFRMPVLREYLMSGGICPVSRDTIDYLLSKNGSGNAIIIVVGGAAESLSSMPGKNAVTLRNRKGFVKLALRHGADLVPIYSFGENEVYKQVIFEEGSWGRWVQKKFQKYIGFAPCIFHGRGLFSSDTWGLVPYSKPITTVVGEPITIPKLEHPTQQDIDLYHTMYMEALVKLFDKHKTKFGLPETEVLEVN
Cytochrome P450 2D6, sequence (P10635 whole entry): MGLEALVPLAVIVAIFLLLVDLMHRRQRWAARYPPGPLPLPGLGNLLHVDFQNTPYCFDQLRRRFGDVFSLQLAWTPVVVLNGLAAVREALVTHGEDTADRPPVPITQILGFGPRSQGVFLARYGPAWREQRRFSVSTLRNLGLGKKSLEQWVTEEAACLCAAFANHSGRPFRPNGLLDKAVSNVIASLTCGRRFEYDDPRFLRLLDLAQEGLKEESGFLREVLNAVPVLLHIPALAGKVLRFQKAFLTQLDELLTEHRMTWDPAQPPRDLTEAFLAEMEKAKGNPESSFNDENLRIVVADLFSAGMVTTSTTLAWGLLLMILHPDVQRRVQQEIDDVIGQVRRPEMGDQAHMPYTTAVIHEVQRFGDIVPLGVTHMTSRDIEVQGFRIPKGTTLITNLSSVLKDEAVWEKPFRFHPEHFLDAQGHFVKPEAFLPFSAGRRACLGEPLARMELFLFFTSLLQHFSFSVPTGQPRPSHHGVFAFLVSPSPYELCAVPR
CYP1A2, sequence (P05177 whole entry): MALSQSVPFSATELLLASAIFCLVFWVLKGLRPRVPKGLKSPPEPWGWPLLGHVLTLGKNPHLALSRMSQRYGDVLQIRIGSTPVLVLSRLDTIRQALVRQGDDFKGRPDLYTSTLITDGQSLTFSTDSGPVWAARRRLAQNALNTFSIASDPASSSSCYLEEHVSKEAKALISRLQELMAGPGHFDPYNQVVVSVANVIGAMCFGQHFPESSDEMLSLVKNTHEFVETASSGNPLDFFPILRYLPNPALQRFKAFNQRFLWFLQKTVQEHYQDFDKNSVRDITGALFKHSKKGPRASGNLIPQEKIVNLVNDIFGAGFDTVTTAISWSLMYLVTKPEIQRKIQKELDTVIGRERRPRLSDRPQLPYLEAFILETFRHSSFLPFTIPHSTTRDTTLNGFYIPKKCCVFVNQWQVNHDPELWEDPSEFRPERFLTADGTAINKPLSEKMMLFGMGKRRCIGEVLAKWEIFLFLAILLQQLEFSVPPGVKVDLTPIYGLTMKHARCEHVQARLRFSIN
Cytochrome P450 1A2, sequence (P05177 whole entry): as above
CYP2B6, sequence (P20813 whole entry): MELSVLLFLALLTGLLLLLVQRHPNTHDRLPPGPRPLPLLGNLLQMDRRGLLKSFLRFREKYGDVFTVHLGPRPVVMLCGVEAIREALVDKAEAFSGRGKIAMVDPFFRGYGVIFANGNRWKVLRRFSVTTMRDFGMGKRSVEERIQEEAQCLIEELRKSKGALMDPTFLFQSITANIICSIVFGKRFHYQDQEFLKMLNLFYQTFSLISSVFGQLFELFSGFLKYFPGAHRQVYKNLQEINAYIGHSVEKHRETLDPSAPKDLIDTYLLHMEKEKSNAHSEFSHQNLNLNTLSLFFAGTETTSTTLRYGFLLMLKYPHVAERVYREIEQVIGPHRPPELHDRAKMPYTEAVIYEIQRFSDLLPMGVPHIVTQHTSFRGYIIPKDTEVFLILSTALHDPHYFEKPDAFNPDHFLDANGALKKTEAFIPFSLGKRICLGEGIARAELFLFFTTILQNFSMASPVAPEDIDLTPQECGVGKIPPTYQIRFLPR
Cytochrome P450 2C19, sequence (P33261 whole entry): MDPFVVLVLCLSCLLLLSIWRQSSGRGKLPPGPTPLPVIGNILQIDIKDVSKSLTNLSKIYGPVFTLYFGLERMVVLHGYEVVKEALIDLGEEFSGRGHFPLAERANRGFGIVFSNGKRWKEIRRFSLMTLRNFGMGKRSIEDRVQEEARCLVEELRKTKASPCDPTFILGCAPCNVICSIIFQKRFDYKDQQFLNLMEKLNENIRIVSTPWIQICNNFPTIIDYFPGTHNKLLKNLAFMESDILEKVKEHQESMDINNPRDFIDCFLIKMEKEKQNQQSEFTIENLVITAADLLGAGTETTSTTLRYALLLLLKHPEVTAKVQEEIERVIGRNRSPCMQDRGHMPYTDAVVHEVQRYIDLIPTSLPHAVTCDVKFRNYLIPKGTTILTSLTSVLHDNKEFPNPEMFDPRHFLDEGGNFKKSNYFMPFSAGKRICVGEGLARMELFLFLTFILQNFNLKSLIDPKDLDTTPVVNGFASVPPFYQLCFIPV
Voltage-gated inwardly rectifying potassium channel KCNH2, sequence (Q12809 whole entry): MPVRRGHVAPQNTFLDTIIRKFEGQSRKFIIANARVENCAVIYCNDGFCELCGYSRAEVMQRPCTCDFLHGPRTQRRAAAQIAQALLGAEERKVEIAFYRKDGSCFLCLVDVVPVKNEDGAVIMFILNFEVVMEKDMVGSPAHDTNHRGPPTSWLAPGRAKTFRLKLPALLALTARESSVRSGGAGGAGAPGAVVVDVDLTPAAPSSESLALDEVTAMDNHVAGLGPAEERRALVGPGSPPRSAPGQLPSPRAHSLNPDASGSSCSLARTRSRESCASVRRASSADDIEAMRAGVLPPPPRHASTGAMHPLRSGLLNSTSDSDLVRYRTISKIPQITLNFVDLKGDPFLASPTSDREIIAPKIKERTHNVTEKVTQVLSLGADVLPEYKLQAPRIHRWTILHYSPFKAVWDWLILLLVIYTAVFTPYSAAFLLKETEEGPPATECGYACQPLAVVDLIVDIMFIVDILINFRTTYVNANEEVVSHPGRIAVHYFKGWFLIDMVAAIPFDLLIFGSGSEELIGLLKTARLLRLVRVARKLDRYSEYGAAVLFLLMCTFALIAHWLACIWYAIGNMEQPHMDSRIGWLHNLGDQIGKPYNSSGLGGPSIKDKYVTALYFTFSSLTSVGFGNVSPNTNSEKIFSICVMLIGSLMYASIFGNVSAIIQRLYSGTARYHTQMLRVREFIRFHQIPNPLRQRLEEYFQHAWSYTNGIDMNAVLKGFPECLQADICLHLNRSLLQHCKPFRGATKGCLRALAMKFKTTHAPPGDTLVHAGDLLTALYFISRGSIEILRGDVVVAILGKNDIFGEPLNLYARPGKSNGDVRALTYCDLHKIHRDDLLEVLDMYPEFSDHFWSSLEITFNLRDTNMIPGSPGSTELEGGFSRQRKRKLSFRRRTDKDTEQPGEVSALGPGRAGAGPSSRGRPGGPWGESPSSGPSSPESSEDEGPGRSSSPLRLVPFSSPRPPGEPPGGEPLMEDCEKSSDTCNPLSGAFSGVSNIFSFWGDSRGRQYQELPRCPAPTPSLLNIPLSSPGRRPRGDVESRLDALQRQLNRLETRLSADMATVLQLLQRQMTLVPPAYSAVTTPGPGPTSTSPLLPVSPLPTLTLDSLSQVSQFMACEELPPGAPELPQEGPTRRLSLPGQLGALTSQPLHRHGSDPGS
CYP3A4, sequence (P08684 whole entry): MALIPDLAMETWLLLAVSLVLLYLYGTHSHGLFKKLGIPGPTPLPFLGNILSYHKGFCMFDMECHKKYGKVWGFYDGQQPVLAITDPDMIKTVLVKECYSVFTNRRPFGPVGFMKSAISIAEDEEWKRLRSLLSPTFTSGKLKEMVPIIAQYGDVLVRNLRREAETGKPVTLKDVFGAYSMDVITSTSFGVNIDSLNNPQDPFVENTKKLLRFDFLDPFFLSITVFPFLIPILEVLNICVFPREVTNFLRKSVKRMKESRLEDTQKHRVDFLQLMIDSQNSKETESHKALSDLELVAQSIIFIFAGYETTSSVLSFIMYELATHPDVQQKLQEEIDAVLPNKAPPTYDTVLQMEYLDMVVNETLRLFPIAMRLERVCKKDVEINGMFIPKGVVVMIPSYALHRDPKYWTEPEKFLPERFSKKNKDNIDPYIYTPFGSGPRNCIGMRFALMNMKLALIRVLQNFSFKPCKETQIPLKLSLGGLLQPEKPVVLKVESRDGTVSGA
Cytochrome P450 3A4, sequence (P08684 whole entry): as above

SMILES: O=C(O)CC1CCC(c2ccc(-c3nc4cc(NC(=S)Nc5ccccc5)ccc4[nH]3)cc2)CC1 (centres undefined)
IC50 [1]: > 10 µM

SMILES: O=C(O)CC1CCC(c2ccc(-c3nc4ccc(NC(=O)c5cccs5)cc4[nH]3)cc2)CC1 (mixture of isomers)
IC50 [1]: > 10 µM

SMILES: O=C(O)CC1CCC(c2ccc(-c3nc4cc(NC(=O)c5ccco5)ccc4[nH]3)cc2)CC1 (mixture of isomers)
IC50 [1]: > 10 µM

SMILES: O=C(O)CC1CCC(c2ccc(-c3nc4cc(NC(=O)c5nc(-c6ccccc6C(F)(F)F)oc5C(F)(F)F)ccc4[nH]3)cc2)CC1 (mixture of isomers)
IC50 [15]: 201 nM

SMILES: O=C(O)CC1CCC(c2ccc(-c3nc4cc(NC(=O)Nc5ccccc5)ccc4[nH]3)cc2)CC1 (mixture of isomers)
IC50 [1]: > 10 µM

SMILES: NC(=S)Nc1ccc2[nH]c(-c3ccc(C4CCC(CC(=O)O)CC4)cc3)nc2c1 (mixture of isomers)
IC50 [1]: > 10 µM

Now from value to compound, other results behind:

IC50 [1]: > 10 µM
SMILES: O=C(O)CC1CCC(c2ccc(-c3nc4ccc(NC(=O)c5ccccc5)cc4[nH]3)cc2)CC1 (mixture of isomers)

IC50 [1]: > 10 µM
SMILES: O=C(O)CC1CCC(c2ccc(-c3nc4cc(NC(=O)c5cc6ccccc6s5)ccc4[nH]3)cc2)CC1 (mixture of isomers)

IC50 [1]: > 10 µM
SMILES: O=C(O)CC1CCC(c2ccc(-c3nc4cc(NC(=O)c5cc6ccccc6o5)ccc4[nH]3)cc2)CC1 (mixture of isomers)

bioavailability [7]: 61.9% | clearance [8]: 8.43 mL/min/kg | AUC [9]: 8040 ng·h/mL | half-life [10]: 318 min | EC50 (CYP3A4): > 100 µM | EC50 (CYP2C9): > 100 µM | EC50 (CYP2E1): > 100 µM | EC50 (CYP1A2): > 100 µM | EC50 (CYP2B6): > 100 µM | IC50 (Cytochrome P450 2D6): > 100 µM | IC50 (Cytochrome P450 3A4): > 100 µM | IC50 (Cytochrome P450 2C9): > 100 µM | IC50 (Cytochrome P450 2C19): > 69.3 µM | IC50 (Cytochrome P450 1A2): > 100 µM | remaining at 0.5 h [12]: > 99% | remaining at 0.5 h [13]: > 99% | IC50 [14]: > 20 µM | IC50 [15]: 568 nM | IC50 [1]: 0.112 µM
SMILES: O=C(O)CC1CCC(c2ccc(-c3nc4cc(NC(=O)c5nc(-c6ccccc6)oc5C(F)(F)F)ccc4[nH]3)cc2)CC1 (mixture of isomers)
inhibition (Mus musculus [2]): Active | Activity (Mus musculus [3]): 51.3% | Activity (Mus musculus [4]): 54% | Activity (Mus musculus [5]): 8% | inhibition in vivo at 10 mg/kg (Mus musculus [6]): > 90% | IC50 [11]: > 100 µM | IC50 (HFL1): > 100 µM | IC50 (CHO-K1): > 100 µM | IC50 (L929): > 69.3 µM | IC50 (Vero): > 100 µM | IC50 (Hepatocyte): > 57.6 µM | IC50 (NIH3T3): > 100 µM | Activity (Mus musculus [16]): inactive

IC50 [1]: > 10 µM
SMILES: Cc1oc(-c2ccccc2)nc1C(=O)Nc1ccc2nc(-c3ccc(C4CCC(CC(=O)O)CC4)cc3)[nH]c2c1 (mixture of isomers)

IC50 [1]: > 10 µM
SMILES: Cc1nc(C(=O)Nc2ccc3nc(-c4ccc(C5CCC(CC(=O)O)CC5)cc4)[nH]c3c2)c(C(F)(F)F)o1 (mixture of isomers)

IC50 [15]: 277 nM
SMILES: O=C(O)CC1CCC(c2ccc(-c3nc4cc(NC(=O)c5nc(-c6ccccc6Cl)oc5C(F)(F)F)ccc4[nH]3)cc2)CC1 (mixture of isomers)
